Experimental data: patent publication US7537765B2, “Inhibition of HIV-1 replication by disruption of the processing of the viral capsid-spacer peptide 1 protein” (priority 2003, dated 2009)

How the values were obtained:
[1] = test system: HIV-1 infected MAGI cells; type: cell-based; details: HIV-1 infected MAGI cells
Description: To distinguish the inhibitory activity of DSB against early and late replication targets, a multinuclear activation of a galactosidase indicator (MAGI) assay was used. In this assay, the targets are HeLa cells stably expressing CD4, CXCR4, CCR5 and a reporter construct consisting of the—galactosidase gene (modified to localize to the nucleus) driven by a truncated HIV-1 LTR. Infection of these cells results in expression of Tat that drives activation of the β-galactosidase reporter gene. Expression of β-galactosidase in infected cells is detected using the chromogenic substrate X-gal.

[2] = test system: HIV-1 infectious molecular clone pNL4-3; assay: EM analysis of HeLa cells transfected with pNL4-3; type: cell-based; details: DSB-treated samples
Description: FIG. 3. EM analysis of DSB-treated HIV-1 infected cells. […] Virions generated in the presence of DSB are characterized by an absence of conical, mature cores. In these samples the cores are uniformly spherical and often acentric. Secondly, many virions display an electron dense layer inside the lipid bilayer but outside the core (indicated with arrows in the DSB-treated sample panels).
HeLa cells were transfected with HIV-1 infectious molecular clone pNL4-3 and treated as described previously with DSB. Following treatment, DSB-treated infected cells were fixed in glutaraldehyde and analyzed by EM.

SIVmac239 chimeric virus = assay: Gag processing of SIVmac239 chimeric mutants with HIV-1 CA-SP1 residues (Western blot); type: cell-based; details: SIV DM chimeric virus (printed SWV.DM), 1 μg/ml
Description: A panel of SIV chimeric constructs harboring various residues of NL4-3 CA-SP1 boundary region was generated using the SIVmac239 molecular clone by employing PCR and cloning procedures described above. SIV mac239 was used to generate the SIV DD and DE constructs. The SIV DD construct was used to generate SIV DM. Different SIV chimeric constructs were produced in the PCR by varying respective mutagenic upstream and downstream primers corresponding to each chimera (Table 1). Each of these parallel two adjacent PCR fragments was gel purified and directly used without phospohorylation treatment for a subsequent amplification with universal upstream primer (Primer. 31) and downstream primer (Primer 32). This product was gel purified, digested with BamHI and SbfI, and then ligated into the BamHI and SbfI sites of SIVmac239 proviral DNA clone. The proviral DNA clones were then screened by automatically sequencing using a Taq Dye Deoxy Terminator cycle Sequencer Kit (Applied Biosystems) individually using an internal primer (Primer. 39). Following the verification the mutations the proviral DNA clones were used for various future studies. […]
Residues A364 through V370 were inserted into the analogous position of the Gag SP1 domain in the DSB-resistant retrovirus SIV (Mac 239 isolate). […] Next, the effect of DSB on the Gag processing phenotype of each of the chimeric viruses was determined. […]

HIV-1IIIB = assay: Virus production and Gag processing (western blot) in chronically infected H9/HIV-1IIIB cells; type: cell-based
Method: (§1) FIG. 2. […] Gag proteins were visualized using HIV-Ig (HIV-1) or monkey anti-SIVmac251 serum (HIV-2 and SIV; NIH AIDS Research and Reference Reagent Program).
(§2) In order to better define DSB's mechanism of action, a detailed examination was undertaken of the virus produced from HIV-1-infected cell lines treated with DSB. Briefly, H9 cells chronically infected with the HIV-1IIIB isolate were treated with DSB at 1 μg/mL for a period of 48 hrs. Indinavir was used as a control. At the 48 hr time-point, spent media was removed and fresh media containing compound was added. At 24, 48 and 72 hrs post fresh compound addition, both cells and supernatant were recovered for analysis. The level of virus in the culture supernatant was determined and western blots were used to characterize viral protein production in both cell-associated and cell-free virus. […] This defect took the form of an additional band in the western blots corresponding to p25 (FIG. 2). This p25 band results from the incomplete processing of the capsid CA-SP1 precursor. […] As discussed above, mutations at the p25 to p24 cleavage site that prevent processing are associated with defects in viral maturation and infectivity (Wiegers K. et al., J. Virol. 72:2846-54 (1998)).

HIV-2ROD = assay: Gag processing (western blot) in chronically infected H9/HIV-2ROD cells; type: cell-based
Method: as §1, §2

[3] = test system: NL4-3 A366V/G357S double mutant; assay: Virus replication assay of re-engineered NL4-3 mutants in Jurkat T cells (reverse transcriptase activity); type: cell-based, HIV-1
Method: In order to more extensively map the viral genetic determinants for DSB resistance, additional experiments were performed to select for viruses in vitro that are drug resistant. Multiple parallel cultures of Jurkat T cells (5×10^5 each) were transfected with the proviral DNA clone pNL4-3 in the presence or absence of 10-50 ng/ml DSB. The cells were passaged every two days, and fresh drug was added at each passage. Virus replication was monitored by measuring reverse transcriptase activity in culture supernatants. Virus was isolated from culture supernatants harvested at selected timepoints, and genomic DNA was amplified by RT-PCR using primers that spanned the coding region between the N-terminus of CA and the N-terminus of RT. The amplified product was then sequenced using the same set of primers.
In one experiment, an A366V mutation was identified in the SP1 region of NL4-3 virus cultured in the presence of DSB (note: numbering is relative to the Gag polyprotein). Upon further passaging, a double mutant was identified that contained a G357S mutation in CA as well as the A366V mutation in SP1. The A366V mutation was identified previously in experiments selecting for resistant variants of the RF isolate. […] Since serine is present at this position in isolates (such as RF) that are sensitive to DSB, the CA G357S mutation alone is not sufficient to confer resistance to DSB. […]

## C=C(C)[C@@H]1CC[C@]2(C(=O)O)CC[C@]3(C)[C@H](CC[C@@H]4[C@@]5(C)CC[C@H](OC(=O)CC(C)(C)C(=O)O)C(C)(C)[C@@H]5CC[C@]43C)[C@@H]12 [DSB, 3-O-(3′,3′-dimethylsuccinyl)betulinic acid]
[1]
  % Decrease (β-galactosidase expression): 12%
[2]
  virion morphology by EM: no mature viral particles were observed
SIVmac239 chimeric virus
  Gag processing phenotype: indicative of sensitivity to DSB
HIV-1IIIB; 1 μg/mL, cell-associated and cell-free virus
  Gag processing (p25 band in western blot): defect in Gag processing
HIV-1IIIB; 1 μg/mL, chronically infected H9 cells
  amount of virus produced: did not cause a significant reduction in the amount of virus produced
HIV-1IIIB; a variety of experimental systems
  effect on virus release: does not have a significant effect on virus release
HIV-2ROD; HIV-2
  antiviral activity: lack of antiviral activity
HIV-2ROD; HIV-2 chronically infected cell line, 1 μg/mL
  Gag processing: normal Gag processing
[3]
  virus replication: replicated efficiently in the absence or presence of DSB
